From US20240246931A1, “COMPOUNDS AS PD1/PD-L1 INHIBITORS AND METHODS THEREOF” (JUBILANT PRODEL LLC, priority 2021, published 2024)
Like-named read-outs stand apart in the source and are kept apart here.

Columns and labels:
PD-1/PD-L1 interaction = biological target: T1, PD-1/PD-L1 interaction (Homo sapiens, UniProt Q9NZQ7); test: PD-1/PD-L1 HTRF binding assay (CisBio kit); conditions: HTRF PD1/PD-L1 inhibition assay
T1 construct: purchased CisBio 63ADK000CPAPEG
How it was run: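 HTRF kit assay: compound was preincubated 15 min with tagged PD-L1 and PD-1 proteins, then Eu-cryptate and XL665 anti-tag antibodies were added for 1 h at room temperature. Readout was the 665/620 nm ratio ×10^4. IC50 was binned as A <100 nM, B 100–500 nM, C >500 nM.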

[1] = Metabolic stability in human liver microsomes; type: in vitro ADME; conditions: human liver microsomes 1.0 mg/mL, compound 1 μM, NADPH, first number of HLM/MLM cell
Excerpt: (§1) Metabolic Stability in Liver Microsomes
(§2) The purpose of this experiment is to measure the metabolic half-life of NCEs in sub-cellular fractions such as human liver microsomes (HLM) or mouse liver microsomes (MLM). This provides an in vitro means to calculate intrinsic hepatic clearance, and to support the prediction of human pharmacokinetics. This approach has been successfully utilized at early phase of drug discovery projects, to provide SAR input for reducing metabolic instability and for predicting in vivo hepatic clearance.
(§3) Procedure: Potassium phosphate buffer (66.7 mM, pH 7.4) containing liver microsomes (mouse and human) (1.0 mg/mL) was pre-incubated separately with compound (1 μM) and positive control (verapamil, 1 μM) in a 37° C. water bath for 5 min. The reactions were initiated by adding 20 μL of 10 mM NADPH. Reactions without NADPH (0 and 30 min) were also incubated to rule out non-NADPH metabolism or chemical instability in the incubation buffer. All reactions were terminated using 200 μL of ice-cold acetonitrile containing internal standard at 0, 5, 15 and 30 min. The vials were centrifuged at 3000 rpm for 15 min. The supernatants thus obtained were analyzed on LC-MS/MS to monitor the disappearance of test compound.

[2] = Metabolic stability in mouse liver microsomes; type: in vitro ADME; conditions: mouse liver microsomes 1.0 mg/mL, compound 1 μM, NADPH, second number of HLM/MLM cell
Excerpt: as §1, §2, §3

[3] = Brain exposure study in mice by IV route; type: in vivo; conditions: male, Balb/c, mouse; for Kp at 0.5 h: brain/plasma, read-out: Brain/Plasma ratio
Excerpt: Institutional Animal Ethical Committee (IAEC) of Jubilant Biosys (IAEC/JDC/2019/188R (for Mice) and IAEC/JDC/2019/189R (for Rat) nominated by CPCSEA (Committee for the Purpose of Control and Supervision of Experiments on Animals) approved the mice and rat pharmacokinetic experiments. Male Balb/c mice (˜6-8 weeks old with body weight range of 22-25 g) and male SD rats (6-8 weeks old with body weight range of 200-250 g) were procured from Vivo Biotech, Hyderabad, India. Animals were quarantined in Jubilant Biosys Animal House for a period of 7 days with a 12:12 h light: dark cycles, and prior to the study the animals were stratified as per body weight.
Procedure for Mice: Intravenous pharmacokinetics study was done at doses of 5, 10 mg/kg respectively at dose volume 5 mL/kg for IV route. Sparse sampling was done and at each time point three mice were used for blood sampling (˜100 μL) were collected from retro-orbital plexus at 0.083 (Only for IV) and 24 h. Blood samples collected in tubes containing K2 EDTA as anticoagulant and centrifuged for 5 min at 10,000 rpm in a refrigerated centrifuge (Biofuge, Heraeus, Germany) maintained at 4° C. for plasma separation. Group I (IV) received compound by intravenously by tail vein at […] in solution formulation. Blood concentration-time data of compound was analyzed by non-compartmental method using Phoenix WinNonlin Version 8.1.
Brain Exposure Study in Mice
The mice were placed in isoflurane anesthesia chamber; following complete anesthesia (3-5% isoflurane) blood sample (0.5 mL) was collected from retro-orbital plexus using mice capillary.
The mice were sacrificed by cervical dislocation. The dorsal surface of the skull was peeled away from the brain using bone cutter, dura matter was gently removed from surface of brain with help of forceps. Brain was gently taken out away from the head and placed in PBS buffer to remove blood. Brain was placed on blotting paper to remove the blood spots and transferred in pre-labelled tube. The isolated brain was weighed and homogenised using 5× volume of phosphate buffer saline (pH-7.4). During homogenization the brain homogenate was kept in ice till sample processing. The homogenate was processed by specified extraction process and analyzed by LC-MS/MS.
Evaluation of Brain Exposure Data by IV Route

T1 sequence (Q9NZQ7 19-238 limits assumed): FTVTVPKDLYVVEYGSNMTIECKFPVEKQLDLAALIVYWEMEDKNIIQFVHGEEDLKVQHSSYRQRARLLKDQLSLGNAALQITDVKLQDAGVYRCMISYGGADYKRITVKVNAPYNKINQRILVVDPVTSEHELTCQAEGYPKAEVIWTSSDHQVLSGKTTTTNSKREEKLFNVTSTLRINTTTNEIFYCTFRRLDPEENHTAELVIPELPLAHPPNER

SMILES | IC50 (PD-1/PD-L1 interaction) [nM] | HLM % remaining @ 30 min [1] | MLM % remaining @ 30 min [2] | concentration at 0.5 h ([3]; brain, 10 mg/kg, 10 mpk, read-out: Brain (ng/g) Mean) [ng/g] | Kp at 0.5 h ([3]; 10 mg/kg, 10 mpk) | concentration at 0.5 h ([3]; plasma, 10 mg/kg, 10 mpk, read-out: Plasma (ng/mL) Mean) [ng/mL] | concentration at 0.5 h ([3]; brain, 5 mg/kg, 5 mpk, read-out: Brain (ng/g) Mean) [ng/g] | Kp at 0.5 h ([3]; 5 mg/kg, 5 mpk) | concentration at 0.5 h ([3]; plasma, 5 mg/kg, 5 mpk, read-out: Plasma (ng/mL) Mean) [ng/mL]
Cc1c(COc2cc(OCC(F)(F)F)c(CN3CCCC[C@H]3CO)c3c2CCC3)cccc1-c1ccccc1 [Example 24, (S)-(1-((7-((2-methyl-[1,1′-biphenyl]-3-yl)methoxy)-5-(2,2,2-trifluoroethoxy)-2,3-dihydro-1H-inden-4-yl)methyl)piperidin-2-yl)methanol] | < 100 | 72% | 67% |  |  |  |  |  | 
Cc1c(COc2cc(OCc3cncc(C#N)c3)c(CN3CC4(CC4)C[C@H]3CO)c3c2CCC3)cccc1-c1ccccc1 [Example 25, (S)-5-(((4-((6-(hydroxymethyl)-5-azaspiro[2.4]heptan-5-yl)methyl)-7-((2-methyl-[1,1′-biphenyl]-3-yl)methoxy)-2,3-dihydro-1H-inden-5-yl)oxy)methyl)nicotinonitrile] | < 100 | 45% | 61% |  |  |  |  |  | 
N#Cc1cncc(COc2cc(OCc3cccc(-c4ccccc4)c3C#N)c3c(c2CN2CC4(CC4)C[C@H]2CO)CCC3)c1 [Example 26, (S)-5-(((7-((2-cyano-[1,1′-biphenyl]-3-yl)methoxy)-4-((6-(hydroxymethyl)-5-azaspiro[2.4]heptan-5-yl)methyl)-2,3-dihydro-1H-inden-5-yl)oxy)methyl)nicotinonitrile] | < 100 | 6% | 5% |  |  |  |  |  | 
Cc1c(COc2cc(OCCF)c(CN3CCCC[C@H]3CO)c3c2CCC3)cccc1-c1ccccc1 [Example 27, (S)-(1-((5-(2-fluoroethoxy)-7-((2-methyl-[1,1′-biphenyl]-3-yl)methoxy)-2,3-dihydro-1H-inden-4-yl)methyl)piperidin-2-yl)methanol] | < 100 | 91% | 84% | 11600 | 12.2 | 949 |  |  | 
Cc1c(COc2cc(OCCF)c(CN3CCC[C@H]3CO)c3c2CCC3)cccc1-c1ccccc1 [Example 28, (S)-(1-((5-(2-fluoroethoxy)-7-((2-methyl-[1,1′-biphenyl]-3-yl)methoxy)-2,3-dihydro-1H-inden-4-yl)methyl)pyrrolidin-2-yl)methanol] | < 100 | 74% | 82% |  |  |  |  |  | 
N#Cc1c(COc2cc(OCCF)c(CN3CCCC[C@H]3CO)c3c2CCC3)cccc1-c1ccccc1 [Example 29, (S)-3-(((6-(2-fluoroethoxy)-7-((2-(hydroxymethyl)piperidin-1-yl)methyl)-2,3-dihydro-1H-inden-4-yl)oxy)methyl)-[1,1′-biphenyl]-2-carbonitrile] | < 100 | 56% | 71% |  |  |  |  |  | 
Cc1c(COc2cc(OCCCCCF)c(CN3CCCC[C@H]3CO)c3c2CCC3)cccc1-c1ccccc1 [Example 30, (S)-(1-((5-((5-fluoropentyl)oxy)-7-((2-methyl-[1,1′-biphenyl]-3-yl)methoxy)-2,3-dihydro-1H-inden-4-yl)methyl)piperidin-2-yl)methanol] | < 100 | 57% | 74% |  |  |  |  |  | 
Cc1c(COc2cc(OCCCCF)c(CN3CCCC[C@H]3CO)c3c2CCC3)cccc1-c1ccccc1 [Example 31, (S)-(1-((5-(4-fluorobutoxy)-7-((2-methyl-[1,1′-biphenyl]-3-yl)methoxy)-2,3-dihydro-1H-inden-4-yl)methyl)piperidin-2-yl)methanol] | < 100 | 65% | 79% |  |  |  | 2450 | 4.9 | 501
Cc1c(COc2cc(OCCCF)c(CN3CCCC[C@H]3CO)c3c2CCC3)cccc1-c1ccccc1 [Example 32, (S)-(1-((5-(3-fluoropropoxy)-7-((2-methyl-[1,1′-biphenyl]-3-yl)methoxy)-2,3-dihydro-1H-inden-4-yl)methyl)piperidin-2-yl)methanol] | < 100 | 81% | 84% |  |  |  |  |  | 
Cc1c(COc2cc(OCc3cccc(C#N)c3)c(CN3CCCC4CC43CO)c3c2CCC3)cccc1-c1ccccc1 (stereo not drawn) [Example 34, 3-(((4-((1-(hydroxymethyl)-2-azabicyclo[4.1.0]heptan-2-yl)methyl)-7-((2-methyl-[1,1′-biphenyl]-3-yl)methoxy)-2,3-dihydro-1H-inden-5-yl)oxy)methyl)benzonitrile] | < 100 | 8% | 5% |  |  |  |  |  | 
Cc1c(COc2cc(OCc3cncc(C#N)c3)c(CN3CCCC4CC43CO)c3c2CCC3)cccc1-c1ccccc1 (stereo not drawn) [Example 35, 5-(((4-((1-(hydroxymethyl)-2-azabicyclo[4.1.0]heptan-2-yl)methyl)-7-((2-methyl-[1,1′-biphenyl]-3-yl)methoxy)-2,3-dihydro-1H-inden-5-yl)oxy)methyl)nicotinonitrile] | < 100 | 3/3% | 3/3% |  |  |  |  |  | 
Cc1c(COc2cc(OCc3cncc(C(N)=O)c3)c(CN3CCCC[C@H]3CO)c3c2CCC3)cccc1-c1ccccc1 [Example 37, (S)-5-(((4-((2-(hydroxymethyl)piperidin-1-yl)methyl)-7-((2-methyl-[1,1′-biphenyl]-3-yl)methoxy)-2,3-dihydro-1H-inden-5-yl)oxy)methyl)nicotinamide] | < 100 | 86% | 88% |  |  |  |  |  | 
Cc1c(COc2cc(OCc3cccc(C(N)=O)c3)c(CN3CCC[C@H]3CO)c3c2CCC3)cccc1-c1ccccc1 [Example 38, (S)-3-(((4-((2-(hydroxymethyl)pyrrolidin-1-yl)methyl)-7-((2-methyl-[1,1′-biphenyl]-3-yl)methoxy)-2,3-dihydro-1H-inden-5-yl)oxy)methyl)benzamide] | < 100 | 78% | 84% |  |  |  |  |  | 
Cc1c(COc2cc(OCc3cc(C#N)c[n+]([O-])c3)c(CN3CCC[C@H]3CO)c3c2CCC3)cccc1-c1ccccc1 [Example 44, (S)-3-cyano-5-(((4-((2-(hydroxymethyl)pyrrolidin-1-yl)methyl)-7-((2-methyl-[1,1′-biphenyl]-3-yl)methoxy)-2,3-dihydro-1H-inden-5-yl)oxy)methyl)pyridine 1-oxide] | < 100 | 33% | 15% |  |  |  |  |  | 
